Data taken from ChEMBL document CHEMBL3045552, “In vivo screening of diarylimidazoles as anticonvulsant agents” (Med Chem Res, 2012).
Calls of active or inactive are those of the source. No cut-off for these calls is given here.

Columns and labels:
Mus musculus [1] = experiment: Anticonvulsant activity in Mus musculus CF1 albino (mouse) assessed as protection against maximal electroshock-induced seizures at 300 mg/kg, ip measured at 4 hr; assay type: functional, organism-based; parameters: dose 300 mg/kg
Mus musculus [2] = experiment: Anticonvulsant activity in Mus musculus CF1 albino (mouse) assessed as protection against subcutaneous metrazol-induced seizures at 30 mg/kg, ip measured at 4 hr; assay type: functional, organism-based; parameters: dose 30 mg/kg
Mus musculus [3] = experiment: Neurotoxicity in Mus musculus CF1 albino (mouse) assessed as minimal motor impairment at 300 mg/kg, ip measured at 0.5 hr by rotorod test; assay type: toxicity, organism-based; parameters: dose 300 mg/kg, route intraperitoneal; details: in vivo
Mus musculus [4] = experiment: Anticonvulsant activity in ip dosed Mus musculus CF1 albino (mouse) assessed as protection against maximal electroshock-induced seizures measured at 0.25 hr; assay type: functional
Mus musculus [5] = experiment: Neurotoxicity in Mus musculus CF1 albino (mouse) assessed as minimal motor impairment at 30 mg/kg, ip measured at 4 hr by rotorod test; assay type: toxicity, organism-based; parameters: dose 30 mg/kg, route intraperitoneal; details: in vivo
Mus musculus [6] = experiment: Neurotoxicity in Mus musculus CF1 albino (mouse) assessed as minimal motor impairment at 300 mg/kg, ip measured at 4 hr by rotorod test; assay type: toxicity, organism-based; parameters: dose 300 mg/kg, route intraperitoneal; details: in vivo
Mus musculus [7] = experiment: Anticonvulsant activity in ip dosed Mus musculus CF1 albino (mouse) assessed as protection against subcutaneous metrazol-induced seizures measured at 0.25 hr; assay type: functional
Mus musculus [8] = experiment: Neurotoxicity in Mus musculus CF1 albino (mouse) assessed as minimal motor impairment at 100 mg/kg, ip measured at 0.5 hr by rotorod test; assay type: toxicity, organism-based; parameters: dose 100 mg/kg, route intraperitoneal; details: in vivo
Mus musculus [9] = experiment: Anticonvulsant activity in Mus musculus CF1 albino (mouse) assessed as protection against maximal electroshock-induced seizures at 100 mg/kg, ip measured at 0.5 hr; assay type: functional, organism-based; parameters: dose 100 mg/kg
[10] = Protective index, ratio of TD50 for neurotoxicity in ip dosed Mus musculus CF1 albino (mouse) to ED50 for protection against maximal electroshock-induced seizures in ip dosed Mus musculus CF1 albino (mouse); assay type: toxicity, organism-based; details: in vivo, read-out: Ratio TD50/ED50
Mus musculus [11] = experiment: Anticonvulsant activity in Mus musculus CF1 albino (mouse) assessed as protection against maximal electroshock-induced seizures at 30 mg/kg, ip measured at 4 hr; assay type: functional, organism-based; parameters: dose 30 mg/kg
Mus musculus [12] = experiment: Neurotoxicity in Mus musculus CF1 albino (mouse) assessed as minimal motor impairment at 30 mg/kg, ip measured at 0.5 hr by rotorod test; assay type: toxicity, organism-based; parameters: dose 30 mg/kg, route intraperitoneal; details: in vivo
[13] = Protective index, ratio of TD50 for neurotoxicity in ip dosed Mus musculus CF1 albino (mouse) to ED50 for protection against subcutaneous metrazol-induced seizures in ip dosed Mus musculus CF1 albino (mouse); assay type: toxicity, organism-based; details: in vivo, read-out: Ratio TD50/ED50
Mus musculus [14] = experiment: Anticonvulsant activity in Mus musculus CF1 albino (mouse) assessed as protection against maximal electroshock-induced seizures at 30 mg/kg, ip measured at 0.5 hr; assay type: functional, organism-based; parameters: dose 30 mg/kg
Mus musculus [15] = experiment: Anticonvulsant activity in Mus musculus CF1 albino (mouse) assessed as protection against subcutaneous metrazol-induced seizures at 100 mg/kg, ip measured at 0.5 hr; assay type: functional, organism-based; parameters: dose 100 mg/kg
Mus musculus [16] = experiment: Anticonvulsant activity in Mus musculus CF1 albino (mouse) assessed as protection against maximal electroshock-induced seizures at 300 mg/kg, ip measured at 0.5 hr; assay type: functional, organism-based; parameters: dose 300 mg/kg
Mus musculus [17] = experiment: Anticonvulsant activity in Mus musculus CF1 albino (mouse) assessed as protection against subcutaneous metrazol-induced seizures at 300 mg/kg, ip measured at 4 hr; assay type: functional, organism-based; parameters: dose 300 mg/kg
Mus musculus [18] = experiment: Anticonvulsant activity in Mus musculus CF1 albino (mouse) assessed as protection against subcutaneous metrazol-induced seizures at 300 mg/kg, ip measured at 0.5 hr; assay type: functional, organism-based; parameters: dose 300 mg/kg
Mus musculus [19] = experiment: Anticonvulsant activity in Mus musculus CF1 albino (mouse) assessed as protection against electrically-induced seizure at 100 mg/kg, ip measured at 4 hr by 6Hz psychomotor seizure test; assay type: functional, organism-based; parameters: dose 100 mg/kg
Mus musculus [20] = experiment: Anticonvulsant activity in Mus musculus CF1 albino (mouse) assessed as protection against subcutaneous metrazol-induced seizures at 100 mg/kg, ip measured at 4 hr; assay type: functional, organism-based; parameters: dose 100 mg/kg
Mus musculus [21] = experiment: Anticonvulsant activity in Mus musculus CF1 albino (mouse) assessed as protection against electrically-induced seizure at 100 mg/kg, ip measured at 2 hr by 6Hz psychomotor seizure test; assay type: functional, organism-based; parameters: dose 100 mg/kg
Mus musculus [22] = experiment: Neurotoxicity in Mus musculus CF1 albino (mouse) assessed as minimal motor impairment at 100 mg/kg, ip measured at 4 hr by rotorod test; assay type: toxicity, organism-based; parameters: dose 100 mg/kg, route intraperitoneal; details: in vivo
Mus musculus [23] = experiment: Anticonvulsant activity in Mus musculus CF1 albino (mouse) assessed as protection against subcutaneous metrazol-induced seizures at 30 mg/kg, ip measured at 0.5 hr; assay type: functional, organism-based; parameters: dose 30 mg/kg
Mus musculus [24] = experiment: Anticonvulsant activity in Mus musculus CF1 albino (mouse) assessed as protection against electrically-induced seizure at 100 mg/kg, ip measured at 1 hr by 6Hz psychomotor seizure test; assay type: functional, organism-based; parameters: dose 100 mg/kg
Mus musculus [25] = experiment: Anticonvulsant activity in Mus musculus CF1 albino (mouse) assessed as protection against electrically-induced seizure at 100 mg/kg, ip measured at 0.25 hr by 6Hz psychomotor seizure test; assay type: functional, organism-based; parameters: dose 100 mg/kg
Mus musculus [26] = experiment: Anticonvulsant activity in ip dosed Mus musculus CF1 albino (mouse) assessed as protection against electrically-induced seizure measured at 0.25 hr by 6Hz psychomotor seizure test; assay type: functional
[27] = Neurotoxicity in ip dosed Mus musculus CF1 albino (mouse) assessed as minimal motor impairment measured at 0.25 hr by rotorod test; assay type: toxicity, organism-based; details: in vivo
Mus musculus [28] = experiment: Anticonvulsant activity in Mus musculus CF1 albino (mouse) assessed as protection against electrically-induced seizure at 100 mg/kg, ip measured at 0.5 hr by 6Hz psychomotor seizure test; assay type: functional, organism-based; parameters: dose 100 mg/kg
[29] = Protective index, ratio of TD50 for neurotoxicity in ip dosed Mus musculus CF1 albino (mouse) to ED50 for protection against electrically-induced seizure by 6Hz psychomotor seizure test in ip dosed Mus musculus CF1 albino (mouse); assay type: toxicity, organism-based; details: in vivo, read-out: Ratio TD50/ED50
Mus musculus [30] = experiment: Anticonvulsant activity in Mus musculus CF1 albino (mouse) assessed as protection against maximal electroshock-induced seizures at 100 mg/kg, ip measured at 4 hr; assay type: functional, organism-based; parameters: dose 100 mg/kg

| Compound | Activity (Mus musculus [1]) | Activity (Mus musculus [2]) | Activity (Mus musculus [3]) | Activity (Mus musculus [5]) | Activity (Mus musculus [6]) | Activity (Mus musculus [8]) | Activity (Mus musculus [9]) | Activity (Mus musculus [11]) | Activity (Mus musculus [12]) | Activity (Mus musculus [14]) | Activity (Mus musculus [15]) | Activity (Mus musculus [16]) | Activity (Mus musculus [17]) | Activity (Mus musculus [18]) | Activity (Mus musculus [19]) | Activity (Mus musculus [20]) | Activity (Mus musculus [22]) | Activity (Mus musculus [23]) | Activity (Mus musculus [24]) | TD50 at 0.25 h [27] [mg/kg] | further results |
| --- | --- | --- | --- | --- | --- | --- | --- | --- | --- | --- | --- | --- | --- | --- | --- | --- | --- | --- | --- | --- | --- |
| COc1ccc(-c2nc(-c3ccccc3)c[nH]2)cc1 | Active | inactive | Toxic | Non-toxic | Toxic | Non-toxic | Active | inactive | Non-toxic | inactive | inactive | Active | inactive | Active | inactive | inactive | Non-toxic | inactive | – | – | ED50 (Mus musculus [4]): 46.8 mg/kg; ED50 (Mus musculus [7]): 142 mg/kg; selectivity ratio [10]: 4.3; selectivity ratio [13]: 1.4; Activity (Mus musculus [21]): inactive |
| FC(F)(F)Oc1ccc(-c2nc(-c3ccccc3)c[nH]2)cc1 | Active | inactive | Toxic | Non-toxic | Non-toxic | Non-toxic | inactive | inactive | Non-toxic | inactive | inactive | Active | inactive | Active | – | inactive | Non-toxic | inactive | Active | 136 | Activity (Mus musculus [25]): Active; ED50 (Mus musculus [26]): 28.2 mg/kg; Activity (Mus musculus [28]): Active; selectivity ratio [29]: 4.8 |
| O=C1NC(=O)C(c2ccccc2)(c2ccccc2)N1 [PHENYTOIN] | – | – | – | – | – | – | – | – | – | – | – | – | – | – | – | – | – | – | – | 35.6 | ED50 (Mus musculus [26]): 27.5 mg/kg |
| CCOc1ccc(-c2nc(-c3ccccc3)c[nH]2)cc1 | inactive | inactive | Non-toxic | Non-toxic | Non-toxic | Non-toxic | – | inactive | Non-toxic | inactive | inactive | Active | – | inactive | inactive | inactive | Non-toxic | inactive | inactive | – | Activity (Mus musculus [21]): inactive; Activity (Mus musculus [30]): inactive |
| COc1ccc(-c2nc(-c3cccc(Cl)c3)c[nH]2)cc1 | Active | inactive | Non-toxic | Non-toxic | Non-toxic | Non-toxic | inactive | inactive | Non-toxic | inactive | inactive | Active | inactive | inactive | inactive | inactive | Non-toxic | inactive | inactive | 390 | ED50 (Mus musculus [4]): 82.1 mg/kg; ED50 (Mus musculus [7]): 103 mg/kg; selectivity ratio [10]: 4.7; selectivity ratio [13]: 3.8 |
